Measurements from US8455523B2, “Compositions and methods for treating hyperlipidemias” (The Research Foundation of State University of New York, priority 2010, dated 2013).

Experiments:
mice fed western diet = experiment: MTPi with or without pioglitazone or lovastatin in mice fed western diet for five weeks (Example III); details: for cellular cholesteryl esters (liver) / hepatic free cholesterol / hepatic triglycerides: MTPi vs control
Procedure: FIGS. 7a and 7b. Mice were fed western diet for five weeks. […] Livers were collected and used to measure MTP activity (A), triglyceride (B), total cholesterol (C), free cholesterol (D), esterified cholesterol (E) and free fatty acids (F).
FIGS. 8a and 8b. Plasma was obtained from animals described in FIG. 7 and used to measure triglyceride (A) and cholesterol (B) in apoB-lipoproteins. In addition, HDL cholesterol (C), plasma free fatty acids (D), ALT (E), and AST (F) levels were measured.

[1] = test system: C57Bl/6J mice fed western diet; experiment: MTP inhibitor CP-346086 with or without lovastatin or WY14643 in western diet fed mice: plasma/hepatic lipids, AST/ALT; assay type: in vivo; details: for hepatic cholesterol (total, free and esterified): co-drug given with MTPi, compared to MTPi group
Procedure: FIGS. 4a and 4b. Effect of MTP inhibitor (CP-34086) on plasma lipids and lipoproteins in C57Bl/6J mice fed western diet ad libitum for 8 weeks. MTP inhibitor solubilzed in DMSO was administered orally for one week (15 mg/kg/day) along with either DMSO (MTPi), lovastatin (50 mg/kg/day), or WY14643 (10 mg/kg/day). Control mice were gavaged with DMSO only.
FIGS. 5a and 5b. Liver samples from FIG. 4 were used to measure MTP activity (A) and hepatic lipids (B-E). Stars on MPTi group represent comparison between Control and MTPi groups.
Control group (n=4) received daily oral gavage of DMSO alone. MTPi group received 15 mg/kg/day MTP inhibitor CP-346086 (MTPi) once daily. […] Plasma total and HDL cholesterol were unaffected by MTPi. Combined treatment of MTPi and lovastatin decreased plasma LDL cholesterol. […] Next, we measured changes in plasma hepatic enzymes (FIGS. 4G-H). […] These studies indicate that apart from lowering plasma triglyceride, MTPi enhances plasma AST/ALT and these increases can be avoided by the co-administration of lovastatin.

[2] = WD five weeks, treatment in last week, co-drugs with MTPi

SMILES	cellular cholesteryl esters (liver) (mice fed western diet; [2])	hepatic free cholesterol (mice fed western diet; [2])	hepatic triglycerides (mice fed western diet; [2])	plasma HDL cholesterol (mice fed western diet; [2])	AST/ALT levels (plasma) (mice fed western diet; mouse, in vivo)	plasma AST/ALT ([1]; WD 8 weeks, CP-346086 15 mg/kg/day 1 week ± lovastatin 50 or WY14643 10 mg/kg/day, MTPi vs control, co-drugs vs MTPi)	plasma lipids ([1]; WD 8 weeks, WY14643 10 mg/kg/day given along with MTPi, 1 week)	hepatic cholesterol (total, free and esterified) [1]	AST/ALT levels (plasma) (mice fed western diet; [2])	plasma free fatty acids (mice fed western diet; [2])
CCc1ccc(CCOc2ccc(CC3SC(=O)NC3=O)cc2)nc1 (racemic) [pioglitazone, (RS)-5-(4-[2-(5-ethylpyridin-2-yl)ethoxy]benzyl)thiazolidine-2,4-dione]	increased	not seen	avoided increases	slightly increased	significantly lower					
Cc1cccc(Nc2cc(Cl)nc(SCC(=O)O)n2)c1C [WY14643]						no significant effect	did not affect	no significant effect		
CC[C@H](C)C(=O)O[C@H]1C[C@@H](C)C=C2C=C[C@H](C)[C@H](CC[C@@H]3C[C@@H](O)CC(=O)O3)[C@H]21 [lovastatin]	increased	not seen	not affected	slightly increased				significantly lower	significantly lower	not affected
